Measured values: patent US8759073B2, “Method for effectively controlling harmful organisms in large-scale culture of microalgae” (ENN Science & Technology Development Co., Ltd., priority 2009, dated 2014)

Experiments:
Oxyrrhis = test: Control of Oxyrrhis contamination in microalgae culture, microscope examination; assay type: cell-based, Oxyrrhis sp
Excerpt: If the contaminated alga liquid is identified as acid tolerant contamination, pH value is raised up with alkalis in the culture system of the microalgae and maintained for a period of time. The pH value cannot be higher than the maximal tolerable pH of the microalgae. […] In an embodiment, said alkali can be ammonia. In an embodiment, said alkali can be NaOH. In an embodiment, said alkali can be 1M NaOH. Depending on different pH requirements and different culture systems, alkalis with different concentrations can be used according to the agitation condition, as long as the transient pH is not too high to be harmful to microalgae, and dilution of the cell concentration in the culture system (caused by adding too much alkali solution) should also be avoided. […] In an embodiment, the pH of the culture system is adjusted to 11.5-12.0 with 1M NaOH or 1M ammonia. In an embodiment, the pH of the culture system is adjusted to 11.0-11.8 or 8.0-11.0 with 1M NaOH or 1M ammonia. In an embodiment, the pH of the culture system is adjusted to 8.0-11.0, 11.5-12.0 or 11.0-11.8 and maintained for 3 hours.
Microscope examination is always used as one of the bases for determining the growth status in the process of microalgae culture.
(§1) Chlorella sp. (purchased from FACHB collection, Wuhan Aquatic Research Institure, Chinses Academy of Sciences) was cultured in a 320 L bubbling reactor (manufactured by Longfang Jiangchuan plexiglass Co. Ltd., φ300 mm×2 m) out-of-doors under a sunlight film. The culture condition included: a temperature of about 25 °C, a humidity of 60%-80%, and an illumination of 8000-20000 lux. Modified SM (see Table 2) (pH 7.0-9.0 for the normal culture) was used. […] Then, CO2 was aerated to adjust pH to be 7.0-8.0.
(§2) Chlorella sp. (obtained from Jinan University) was cultured in a 320 L bubbling reactor (manufactured by Longfang Jiangchuan plexiglass Co. Ltd., φ300 mm×2 m) out-of-doors under a sunlight film (with a temperature of about 25 °C, a humidity of 60%-80%, and an illumination of 8000-20000 lux). Modified SM medium (see Table 2) was used. When Amoeba, Oxyrrhis and ciliate contaminations were observed is with an oil immersion lens (Nikon fluorescent invert microscope Ti series), pH was adjusted to 11.0-11.8 with 1M NaOH. […] Then, CO2 was aerated continuously to saturation (pH 5.6). […] Then air was sufficiently aerated.
(§3) Chlorococcum sp. (obtained from Qingdao Marine Institute) was cultured in a 60 L glass plate reactor (manufactured by Longfang Jiangchuan plexiglass Co. Ltd., OP=10 cm) under a sunlight film (with a temperature of about 25 °C, a humidity of 60%-80%, and an illumination of 8000-20000 lux) (pH 8.0-9.0 for the normal culture). Modified BG11 medium (see Table 3) was used. […] Then CO2 was aerated and pH was adjusted to 7.0-8.0.
(§4) Chlorococcum sp. (obtained from Qingdao Marine Institute) was cultured in a 60 L glass plate reactor (manufactured by Longfang Jiangchuan plexiglass Co. Ltd., OP=10 cm) under a sunlight film (with a temperature of about 25 °C, a humidity of 60%-80%, and an illumination of 8000-20000 lux) (pH 8.0-9.0 for the normal culture). Modified BG11 medium (see Table 3) was used. […] One hour later, CO2 was aerated to saturation (about pH 5.6) for 24 hour continuously. […] Then air was sufficiently aerated.

Chlorella sp. = test: Growth of cultured algae after treatment, 320 L bubbling reactor; settings: for algae growth compared with adjusting pH with NaOH: pH adjusted with 1M ammonia
Protocol: (§5) pH of the normally cultured microalgae is adjusted into various ranges. The growth rate of the microalgae is measured and their appearance is observed under a microscope.
as §1
Chlorella sp. (purchased from FACHB collection, Wuhan Aquatic Research Institure, Chinses Academy of Sciences) was cultured in a 320 L bubbling reactor (manufactured by Longfang Jiangchuan plexiglass Co. Ltd., φ300 mm×2 m) out-of-doors under a sunlight film. Modified SM medium (see Table 2) (pH 7.0-9.0 for the normal culture) was used. The culture condition included: a temperature of about 25 °C, a humidity of 60%-80%, and an illumination of 8000-20000 lux. […] Then air was sufficiently aerated, and pH was raised to 7.0-7.5 after 4 hours.
as §2
as §1, with “film. Modified SM medium (see Table 2) (pH 7.0-9.0 for the normal culture) was used.” for “film.”, “lux.” for “lux. Modified SM (see Table 2) (pH 7.0-9.0 for the normal culture) was used.”, “Then” for “Then,”, “aerated and pH was adjusted” for “aerated”, “to” for “to adjust pH to be”
Chlorella sp. (obtained from Jinan University) was cultured in a 320 L bubbling reactor (manufactured by Longfang Jiangchuan plexiglass Co. Ltd., φ300 mm×2 m) out-of-doors under a sunlight film (with a temperature of about 25 °C, a humidity of 60%-80%, and an illumination of 8000-20000 lux). Modified SM medium (see Table 2) was used. […] Then CO2 was aerated to saturation (pH 5.6) for 24 hours continuously. […] Then air was sufficiently aerated.

Chlorococcum sp. = test: Growth of cultured algae after treatment, 60 L glass plate reactor; settings: for algae growth compared with adjusting pH with NaOH: pH adjusted with 1M ammonia
Protocol: as §5
Chlorococcum sp. (obtained from Qingdao Marine Institute) was cultured (pH 8.0-9.0 for the normal culture) in a 60 L glass plate reactor (manufactured by Longfang Jiangchuan plexiglass Co. Ltd., OP=10 cm) under a sunlight film (with a temperature of about 25 °C, a humidity of 60%-80%, and an illumination of 8000-20000 lux). Modified BG11 medium (see Table 3) was used. […] CO2 was aerated continuously. […] Then air was sufficiently aerated, and pH was raised to 7.0-8.0 in 4 hours.
as §3, §4
as §3, with “air” for “CO2”, “sufficiently aerated.” for “aerated and pH was adjusted to 7.0-8.0.”
as §3
Chlorococcum sp. (obtained from Qingdao Marine Institute) was cultured in a 60 L glass plate reactor (manufactured by Longfang Jiangchuan plexiglass Co. Ltd., OP=10 cm) under a sunlight film (with a temperature of about 25 °C, a humidity of 60%-80%, and an illumination of 8000-20000 lux) (pH 8.0-9.0 for the normal culture). Modified BG11 medium (see Table 3) was used.

Spirulina maxima = test: Growth of cultured algae after treatment, 500 L raceway pond; assay type: cell-based; settings: Example 15; pH adjusted with 1M ammonia
Protocol: Modified SM (see Table 2) was used. […] Then air was sufficiently aerated. Twenty-four hours later, the algae could resume to grow.
Modified SM (see Table 2) was used. […] One hour later, CO2 was aerated to saturation for 23 hour continuously (about pH 5.8). […] Then air was sufficiently aerated. Twenty-four hours later, the algae could resume to grow.

Compound	Oxyrrhis, result of microscope examination (Oxyrrhis; Example 2, Chlorella sp. culture, pH 11.0-11.8 with 1M NaOH, three hours)	Oxyrrhis, result of microscope examination (Oxyrrhis; Example 4, Chlorella sp. culture, mixed contamination, pH 11.0-11.8 with 1M NaOH, one hour)	Oxyrrhis, result of microscope examination (Oxyrrhis; Example 6, Chlorococcum sp. culture, pH 11.5-12.0 with 1M NaOH, three hours)	Oxyrrhis, result of microscope examination (Oxyrrhis; Example 7, Chlorococcum sp. culture, mixed contamination, pH 11.5-12.0 with 1M NaOH)	Oxyrrhis, result of microscope examination (Oxyrrhis; Example 11, Chlorella sp. culture, pH 8.0 with 1M ammonia, three hours)	Oxyrrhis, result of microscope examination (Oxyrrhis; Example 12, Chlorella sp. culture, mixed contamination, pH 9.0 with 1M ammonia, one hour)	Oxyrrhis, result of microscope examination (Oxyrrhis; Example 13, Chlorococcum sp. culture, pH 10.0 with 1M ammonia, three hours)	Oxyrrhis, result of microscope examination (Oxyrrhis; Example 14, Chlorococcum sp. culture, mixed contamination, pH 9.0 with 1M ammonia)	time until algae started to grow (Chlorella sp.; Example 11, pH 8.0 with 1M ammonia 3 h, then CO2 to pH 7.0-8.0) [h]	algae growth compared with adjusting pH with NaOH (Chlorella sp.; Example 11)	algae growth compared with adjusting pH with NaOH (Chlorella sp.; Example 12)	time until algae started to grow (Chlorococcum sp.; Example 13, pH 10.0 with 1M ammonia 3 h, then CO2 to pH 7.0-8.0) [h]	algae growth compared with adjusting pH with NaOH (Chlorococcum sp.; Example 13)	algae growth compared with adjusting pH with NaOH (Chlorococcum sp.; Example 14)	algae growth compared with adjusting pH with NaOH (Spirulina maxima)
[Na+].[OH-] [1M NaOH, NaOH]	almost no Oxyrrhis	essentially inactivated	almost no Oxyrrhis	essentially inactivated	–	–	–	–	–	–	–	–	–	–	–
N [1M ammonia, ammonia]	–	–	–	–	almost no Oxyrrhis was observed	lost its activity essentially	almost no Oxyrrhis	inactivated essentially	18	clearly grew better	clearly grew better	18	clearly grew better	clearly grew better	clearly grew better
